From PubChem BioAssay (NCI)
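Following 48 hours of exposure in 96-well plates, responses at five concentrations were used to interpolate endpoints linearly. At the TGI there is no net growth.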

Assays:
Test in all cases: inhibition of tumour cell growth, NCI panel, 48 h
HOP-62 NSCLC = test system: HOP-62 NSCLC
CCRF-CEM leukemia = test system: CCRF-CEM leukemia
M14 melanoma = test system: M14 melanoma
DLD-1 colon = test system: DLD-1 colon
HCT-116 colon = test system: HCT-116 colon
NCI-H226 lung = test system: NCI-H226 lung
SK-MEL-2 melanoma = test system: SK-MEL-2 melanoma
EKVX NSCLC = test system: EKVX NSCLC
MCF7 breast = test system: MCF7 breast
HOP-92 NSCLC = test system: HOP-92 NSCLC
SN12C renal = test system: SN12C renal
SF-539 CNS = test system: SF-539 CNS
XF 498 CNS = test system: XF 498 CNS
MDA-MB-435 = test system: MDA-MB-435
NCI/ADR-RES ovarian = test system: NCI/ADR-RES ovarian
SNB-78 CNS = test system: SNB-78 CNS
LXFL 529 NSCLC = test system: LXFL 529 NSCLC
786-0 renal = test system: 786-0 renal
OVCAR-5 ovarian = test system: OVCAR-5 ovarian
HT29 colon = test system: HT29 colon
OVCAR-3 ovarian = test system: OVCAR-3 ovarian
U251 CNS = test system: U251 CNS
NCI-H460 lung = test system: NCI-H460 lung
SK-MEL-28 melanoma = test system: SK-MEL-28 melanoma
PC-3 prostate = test system: PC-3 prostate
DU-145 prostate = test system: DU-145 prostate
NCI-H522 lung = test system: NCI-H522 lung
DMS 114 small cell lung = test system: DMS 114 small cell lung
COLO 205 colon = test system: COLO 205 colon
HCC-2998 colon = test system: HCC-2998 colon
RPMI-8226 leukemia = test system: RPMI-8226 leukemia
SF-295 CNS = test system: SF-295 CNS
OVCAR-8 ovarian = test system: OVCAR-8 ovarian
SK-MEL-5 melanoma = test system: SK-MEL-5 melanoma
SNB-19 CNS = test system: SNB-19 CNS
SR leukemia = test system: SR leukemia
TK-10 renal = test system: TK-10 renal
M19-MEL melanoma = test system: M19-MEL melanoma
UACC-257 melanoma = test system: UACC-257 melanoma
ACHN renal = test system: ACHN renal
MOLT-4 leukemia = test system: MOLT-4 leukemia
HOP-18 NSCLC = test system: HOP-18 NSCLC
A498 renal = test system: A498 renal
MDA-N = test system: MDA-N
MALME-3M melanoma = test system: MALME-3M melanoma
HL-60(TB) leukemia = test system: HL-60(TB) leukemia
A549 NSCLC = test system: A549 NSCLC
SF-268 CNS = test system: SF-268 CNS
KM12 colon = test system: KM12 colon
LOX IMVI melanoma = test system: LOX IMVI melanoma
OVCAR-4 ovarian = test system: OVCAR-4 ovarian
SNB-75 CNS = test system: SNB-75 CNS
UO-31 renal = test system: UO-31 renal
K-562 leukemia = test system: K-562 leukemia
IGROV1 ovarian = test system: IGROV1 ovarian
NCI-H23 lung = test system: NCI-H23 lung
HS 578T breast = test system: HS 578T breast
HCT-15 colon = test system: HCT-15 colon
CAKI-1 renal = test system: CAKI-1 renal
BT-549 breast = test system: BT-549 breast
SW-620 colon = test system: SW-620 colon
RXF 393 renal = test system: RXF 393 renal
SK-OV-3 ovarian = test system: SK-OV-3 ovarian
MDA-MB-231 breast = test system: MDA-MB-231 breast
KM20L2 colon = test system: KM20L2 colon
UACC-62 melanoma = test system: UACC-62 melanoma
DMS 273 small cell lung = test system: DMS 273 small cell lung

## CC(C)Cc1ccc(C(C)/C=C2\CCC(CN(C)C)C2=O)cc1 (configuration not stated)
HOP-62 NSCLC
  TGI: 25 µM
CCRF-CEM leukemia
  TGI: 23.4 µM
M14 melanoma
  TGI: 28.5 µM
DLD-1 colon
  TGI: 40 µM
HCT-116 colon
  TGI: 23.1 µM
NCI-H226 lung
  TGI: 46.4 µM
SK-MEL-2 melanoma
  TGI: 28.6 µM
EKVX NSCLC
  TGI: 40.2 µM
MCF7 breast
  TGI: 18 µM
HOP-92 NSCLC
  TGI: 39.1 µM
SN12C renal
  TGI: 20.5 µM
SF-539 CNS
  TGI: 30.4 µM
XF 498 CNS
  TGI: 36.5 µM
MDA-MB-435
  TGI: 19.6 µM
NCI/ADR-RES ovarian
  TGI: 24.3 µM
SNB-78 CNS
  TGI: 36.3 µM
LXFL 529 NSCLC
  TGI: 22.6 µM
786-0 renal
  TGI: 8.13 µM
OVCAR-5 ovarian
  TGI: 43.1 µM
HT29 colon
  TGI: 31.5 µM
OVCAR-3 ovarian
  TGI: 26.5 µM
U251 CNS
  TGI: 30.4 µM
NCI-H460 lung
  TGI: 45.8 µM
SK-MEL-28 melanoma
  TGI: 30.4 µM
PC-3 prostate
  TGI: 22.4 µM
DU-145 prostate
  TGI: 23.6 µM
NCI-H522 lung
  TGI: 15.2 µM
DMS 114 small cell lung
  TGI: 46.1 µM
COLO 205 colon
  TGI: 32.1 µM
HCC-2998 colon
  TGI: 31.3 µM
RPMI-8226 leukemia
  TGI: 9.94 µM
SF-295 CNS
  TGI: 28.6 µM
OVCAR-8 ovarian
  TGI: 19 µM
SK-MEL-5 melanoma
  TGI: 19.4 µM
SNB-19 CNS
  TGI: 26.3 µM
SR leukemia
  TGI: 9.41 µM
TK-10 renal
  TGI: 18.9 µM
M19-MEL melanoma
  TGI: 37.5 µM
UACC-257 melanoma
  TGI: 30 µM
ACHN renal
  TGI: 38.1 µM
MOLT-4 leukemia
  TGI: 7.91 µM
HOP-18 NSCLC
  TGI: 32.2 µM
A498 renal
  TGI: 39.5 µM
MDA-N
  TGI: 22.2 µM
MALME-3M melanoma
  TGI: 32.2 µM
HL-60(TB) leukemia
  TGI: 26.7 µM
A549 NSCLC
  TGI: 69.5 µM
SF-268 CNS
  TGI: 25.5 µM
KM12 colon
  TGI: 18.2 µM
LOX IMVI melanoma
  TGI: 15.6 µM
OVCAR-4 ovarian
  TGI: 35.2 µM
SNB-75 CNS
  TGI: 30.8 µM
UO-31 renal
  TGI: 23.4 µM
K-562 leukemia
  TGI: 8.04 µM
IGROV1 ovarian
  TGI: 18 µM
NCI-H23 lung
  TGI: 34 µM
HS 578T breast
  TGI: 8.45 µM
HCT-15 colon
  TGI: 23.1 µM
CAKI-1 renal
  TGI: 32.7 µM
BT-549 breast
  TGI: 31.1 µM
SW-620 colon
  TGI: 17.4 µM
RXF 393 renal
  TGI: 35.1 µM
SK-OV-3 ovarian
  TGI: 36.5 µM
MDA-MB-231 breast
  TGI: 4.52 µM
KM20L2 colon
  TGI: 51.4 µM
UACC-62 melanoma
  TGI: 33.8 µM

## CC(=O)OC1COC(N2CCc3cc([N+](=O)[O-])ccc32)C(OC(C)=O)C1OC(C)=O (configuration not stated)
HOP-62 NSCLC
  TGI: > 100 µM
CCRF-CEM leukemia
  TGI: > 100 µM
M14 melanoma
  TGI: > 100 µM
DLD-1 colon
  TGI: > 100 µM
NCI-H226 lung
  TGI: > 100 µM
SK-MEL-2 melanoma
  TGI: > 100 µM
EKVX NSCLC
  TGI: > 100 µM
HOP-92 NSCLC
  TGI: > 100 µM
SF-539 CNS
  TGI: > 100 µM
XF 498 CNS
  TGI: > 100 µM
SNB-78 CNS
  TGI: > 100 µM
LXFL 529 NSCLC
  TGI: > 100 µM
786-0 renal
  TGI: > 100 µM
HT29 colon
  TGI: > 100 µM
OVCAR-3 ovarian
  TGI: > 100 µM
U251 CNS
  TGI: > 100 µM
NCI-H460 lung
  TGI: > 100 µM
SK-MEL-28 melanoma
  TGI: > 100 µM
NCI-H522 lung
  TGI: > 100 µM
DMS 114 small cell lung
  TGI: > 100 µM
COLO 205 colon
  TGI: > 100 µM
RPMI-8226 leukemia
  TGI: > 100 µM
SF-295 CNS
  TGI: > 100 µM
OVCAR-8 ovarian
  TGI: > 100 µM
SK-MEL-5 melanoma
  TGI: > 100 µM
SNB-19 CNS
  TGI: > 100 µM
SR leukemia
  TGI: > 100 µM
TK-10 renal
  TGI: > 100 µM
M19-MEL melanoma
  TGI: > 100 µM
UACC-257 melanoma
  TGI: > 100 µM
ACHN renal
  TGI: > 100 µM
MOLT-4 leukemia
  TGI: > 100 µM
A498 renal
  TGI: > 100 µM
A549 NSCLC
  TGI: > 100 µM
SF-268 CNS
  TGI: > 100 µM
KM12 colon
  TGI: > 100 µM
LOX IMVI melanoma
  TGI: > 100 µM
OVCAR-4 ovarian
  TGI: > 100 µM
SNB-75 CNS
  TGI: > 100 µM
UO-31 renal
  TGI: > 100 µM
K-562 leukemia
  TGI: > 100 µM
IGROV1 ovarian
  TGI: > 100 µM
NCI-H23 lung
  TGI: > 100 µM
HCT-15 colon
  TGI: > 100 µM
CAKI-1 renal
  TGI: > 100 µM
SW-620 colon
  TGI: > 100 µM
RXF 393 renal
  TGI: > 100 µM
SK-OV-3 ovarian
  TGI: > 100 µM
KM20L2 colon
  TGI: > 100 µM
DMS 273 small cell lung
  TGI: > 100 µM
UACC-62 melanoma
  TGI: > 100 µM

## C1CSCCSCCCS[C@@H]2CCCCC2SC1 (some centres not stated)
HOP-62 NSCLC
  TGI: > 100 µM
CCRF-CEM leukemia
  TGI: 88.7 µM
M14 melanoma
  TGI: > 100 µM
DLD-1 colon
  TGI: > 100 µM
HCT-116 colon
  TGI: > 100 µM
NCI-H226 lung
  TGI: > 100 µM
SK-MEL-2 melanoma
  TGI: > 100 µM
EKVX NSCLC
  TGI: > 100 µM
HOP-92 NSCLC
  TGI: > 100 µM
SN12C renal
  TGI: > 100 µM
SF-539 CNS
  TGI: > 100 µM
SNB-78 CNS
  TGI: > 100 µM
LXFL 529 NSCLC
  TGI: > 100 µM
786-0 renal
  TGI: > 100 µM
OVCAR-5 ovarian
  TGI: > 100 µM
HT29 colon
  TGI: > 100 µM
OVCAR-3 ovarian
  TGI: > 100 µM
U251 CNS
  TGI: > 100 µM
NCI-H460 lung
  TGI: > 100 µM
SK-MEL-28 melanoma
  TGI: > 100 µM
NCI-H522 lung
  TGI: > 100 µM
DMS 114 small cell lung
  TGI: 65.4 µM
COLO 205 colon
  TGI: > 100 µM
HCC-2998 colon
  TGI: > 100 µM
RPMI-8226 leukemia
  TGI: 52.6 µM
SF-295 CNS
  TGI: > 100 µM
OVCAR-8 ovarian
  TGI: > 100 µM
SK-MEL-5 melanoma
  TGI: > 100 µM
SNB-19 CNS
  TGI: > 100 µM
TK-10 renal
  TGI: > 100 µM
M19-MEL melanoma
  TGI: > 100 µM
UACC-257 melanoma
  TGI: > 100 µM
ACHN renal
  TGI: > 100 µM
HOP-18 NSCLC
  TGI: > 100 µM
A498 renal
  TGI: > 100 µM
MALME-3M melanoma
  TGI: > 100 µM
HL-60(TB) leukemia
  TGI: > 100 µM
A549 NSCLC
  TGI: > 100 µM
SF-268 CNS
  TGI: > 100 µM
KM12 colon
  TGI: > 100 µM
LOX IMVI melanoma
  TGI: > 100 µM
OVCAR-4 ovarian
  TGI: > 100 µM
SNB-75 CNS
  TGI: > 100 µM
UO-31 renal
  TGI: > 100 µM
K-562 leukemia
  TGI: 96.1 µM
IGROV1 ovarian
  TGI: > 100 µM
NCI-H23 lung
  TGI: > 100 µM
HCT-15 colon
  TGI: 28.8 µM
CAKI-1 renal
  TGI: > 100 µM
SW-620 colon
  TGI: 53.5 µM
RXF 393 renal
  TGI: > 100 µM
SK-OV-3 ovarian
  TGI: > 100 µM
KM20L2 colon
  TGI: > 100 µM
DMS 273 small cell lung
  TGI: > 100 µM
UACC-62 melanoma
  TGI: > 100 µM
